Drawing on PubChem BioAssay (NCI), this text covers TGI for 14 compounds.

Test systems include OVCAR-4 ovarian; BT-549 breast; OVCAR-3 ovarian; UACC-257 melanoma; NCI-H226 lung; HCC-2998 colon; MDA-MB-231 breast; UACC-62 melanoma; SK-MEL-28 melanoma; MDA-N; LOX IMVI melanoma; HL-60(TB) leukemia.
Test in all cases: NCI anticancer screen, dose series, 48 h

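Dose response: 5 concentrations. Exposure: 48 h. Format: 96-well plates. Endpoint: linear interpolation; highest concentration if not reached. TGI: total growth inhibition.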

With `O=C1/C(=C/c2ccc(Br)s2)NC(=S)N1CN1CCOCC1`, the TGI in the assay with OVCAR-4 ovarian, in the assay on BT-549 breast, with OVCAR-3 ovarian, in the assay on UACC-257 melanoma, with NCI-H226 lung and with HCC-2998 colon was greater than 100 µM each time. In addition, the TGI in the assay with MDA-MB-231 breast was greater than 100 µM; in the assay with UACC-62 melanoma, 48.6 µM; with SK-MEL-28 melanoma, greater than 100 µM; with MDA-N, greater than 100 µM; in the assay with LOX IMVI melanoma, 61.4 µM; in the assay on HL-60(TB) leukemia it was 62.6 µM.

On to `COC(=O)CCCC(=O)C(=Nc1c(Cl)cccc1Cl)NNc1ccc(Cl)cc1`, for which the TGI in the assay with OVCAR-4 ovarian, with BT-549 breast, in the assay with OVCAR-3 ovarian, with UACC-257 melanoma, in the assay on NCI-H226 lung and with HCC-2998 colon was greater than 100 µM in each case. In addition, the TGI with MDA-MB-231 breast, in the assay with UACC-62 melanoma, in the assay on SK-MEL-28 melanoma, with MDA-N, with LOX IMVI melanoma and in the assay with HL-60(TB) leukemia was greater than 100 µM in each case.

For `CCOC(=O)C1C(=O)CC(O)(c2ccccc2)C(C(=O)OCC)C1c1ccc(OC)cc1` (stereo not drawn), the TGI with OVCAR-4 ovarian was greater than 100 µM; in the assay with BT-549 breast, greater than 100 µM; with OVCAR-3 ovarian, 42.8 µM; in the assay on UACC-257 melanoma it was greater than 100 µM; in the assay with NCI-H226 lung it was greater than 100 µM; in the assay with HCC-2998 colon, greater than 100 µM. For the same compound, the TGI with MDA-MB-231 breast is greater than 100 µM; in the assay with UACC-62 melanoma it was greater than 100 µM; with SK-MEL-28 melanoma it was greater than 100 µM; with MDA-N it was 16 µM; in the assay with LOX IMVI melanoma it was greater than 64.7 µM; in the assay with HL-60(TB) leukemia, greater than 47.8 µM.

As for `CO/N=C1/c2sccc2[C@H](NC(=O)CNC(=O)OC(C)(C)C)[C@@H]1O`, the TGI in the assay with OVCAR-4 ovarian, with BT-549 breast, in the assay on OVCAR-3 ovarian, in the assay on UACC-257 melanoma, in the assay with NCI-H226 lung and with HCC-2998 colon was greater than 100 µM throughout. The TGI in the assay with MDA-MB-231 breast, in the assay on UACC-62 melanoma, in the assay on SK-MEL-28 melanoma, with MDA-N, in the assay on LOX IMVI melanoma and in the assay with HL-60(TB) leukemia was greater than 100 µM each time.

With `CCC[C@H](C)[C@H]1NC(=O)[C@@H](NC(=O)[C@@H](CC(C)C)N(C)C(=O)C2CCCN2C(=O)[C@H](C)O)[C@@H](C)OC(=O)[C@H](CC(C)C)N(C)C(=O)[C@@H]2CCCN2C(=O)[C@H](CC(C)C)NC(=O)[C@@H](C)C(=O)[C@H](C(C)C)OC(=O)C[C@@H]1O` (stereo partly drawn), the TGI in the assay on OVCAR-4 ovarian worked out at 0.0117 µM; in the assay with BT-549 breast, 0.025 µM; with OVCAR-3 ovarian, 0.0117 µM; in the assay on UACC-257 melanoma, 0.0205 µM; in the assay with NCI-H226 lung, 0.0622 µM; in the assay with HCC-2998 colon, 0.00551 µM. The TGI is 0.00855 µM in the assay on MDA-MB-231 breast; 0.0027 µM in the assay with UACC-62 melanoma; less than 0.0025 µM with SK-MEL-28 melanoma; 0.0205 µM with MDA-N; 0.00309 µM in the assay on LOX IMVI melanoma; 0.108 µM with HL-60(TB) leukemia.

Turning to `CC(=O)/C(=C/n1c(=S)sc2ccccc21)C(=O)Nc1ccccc1C`, the TGI with OVCAR-4 ovarian, in the assay on BT-549 breast, with OVCAR-3 ovarian, in the assay on UACC-257 melanoma, in the assay with NCI-H226 lung and in the assay on HCC-2998 colon was greater than 100 µM throughout. The TGI with MDA-MB-231 breast, in the assay on UACC-62 melanoma, in the assay on SK-MEL-28 melanoma, in the assay with MDA-N, in the assay on LOX IMVI melanoma and with HL-60(TB) leukemia was greater than 100 µM each time.

As to `Cc1ccc(C(=O)Nc2ccc(CP(=O)(O)O)cc2)cc1NC(=O)c1cccc(NC(=O)Nc2cccc(C(=O)Nc3cc(C(=O)Nc4ccc(CP(=O)(O)O)cc4)ccc3C)c2)c1`, the TGI with OVCAR-4 ovarian, with BT-549 breast, in the assay with OVCAR-3 ovarian, in the assay on UACC-257 melanoma, in the assay on NCI-H226 lung and with HCC-2998 colon was greater than 100 µM in each case. Moreover, the TGI with MDA-MB-231 breast, in the assay on UACC-62 melanoma, with SK-MEL-28 melanoma, in the assay with MDA-N, in the assay on LOX IMVI melanoma and in the assay on HL-60(TB) leukemia was greater than 100 µM in each case.

Turning to `CC1CC(C#N)=C2NCCCCN2C1=O` (stereo not drawn), the TGI in the assay on OVCAR-4 ovarian, in the assay with BT-549 breast, in the assay with OVCAR-3 ovarian, in the assay on UACC-257 melanoma, with NCI-H226 lung and with HCC-2998 colon was greater than 100 µM throughout. In addition, the TGI in the assay on MDA-MB-231 breast, in the assay on UACC-62 melanoma, with SK-MEL-28 melanoma, in the assay on MDA-N, with LOX IMVI melanoma and in the assay on HL-60(TB) leukemia was greater than 100 µM each time.

As for `CCN(CC)CCCn1c(=O)c2cccnc2n2c3c(=O)n(C)c(=O)n(C)c3nc12`, the TGI in the assay with OVCAR-4 ovarian, with BT-549 breast, in the assay on OVCAR-3 ovarian, in the assay with UACC-257 melanoma, with NCI-H226 lung and with HCC-2998 colon was greater than 100 µM in each case. Further, the TGI in the assay with MDA-MB-231 breast, in the assay on UACC-62 melanoma, with SK-MEL-28 melanoma, with MDA-N, in the assay on LOX IMVI melanoma and in the assay with HL-60(TB) leukemia was greater than 100 µM in each case.

Regarding `N#Cc1c2c(c(Nc3ccc(F)cc3)n3c1nc1ccccc13)CCC2`, the TGI amounted to 28.4 µM with OVCAR-4 ovarian; 17.8 µM with BT-549 breast; 18.5 µM with OVCAR-3 ovarian; 24.1 µM in the assay with UACC-257 melanoma; 22.7 µM in the assay with NCI-H226 lung; 41.9 µM in the assay on HCC-2998 colon. Besides, the TGI in the assay with MDA-MB-231 breast was 11.3 µM; in the assay with UACC-62 melanoma, 25.1 µM; with SK-MEL-28 melanoma, 23.7 µM; in the assay with MDA-N, 9.75 µM; with LOX IMVI melanoma, 5.37 µM; in the assay with HL-60(TB) leukemia, greater than 100 µM.

On to `CCOC(=O)c1c(N)n(-c2ccccc2)c(=S)n(-c2ccccc2)c1=O`, for which the TGI with OVCAR-4 ovarian, in the assay with BT-549 breast, in the assay with OVCAR-3 ovarian, with UACC-257 melanoma, in the assay on NCI-H226 lung and in the assay on HCC-2998 colon was greater than 100 µM throughout. For the same compound, the TGI in the assay with MDA-MB-231 breast, with UACC-62 melanoma, in the assay with SK-MEL-28 melanoma, with MDA-N, with LOX IMVI melanoma and with HL-60(TB) leukemia was greater than 100 µM each time.

For `CC(=O)OCC1OC(n2c(=S)[nH]c(-c3ccccc3)c(C#N)c2=O)C(OC(C)=O)C(OC(C)=O)C1OC(C)=O` (stereo not drawn), the TGI in the assay with OVCAR-4 ovarian, in the assay with BT-549 breast, in the assay on OVCAR-3 ovarian, with UACC-257 melanoma, with NCI-H226 lung and in the assay on HCC-2998 colon was greater than 100 µM each time. The TGI in the assay with MDA-MB-231 breast, in the assay with UACC-62 melanoma, in the assay with SK-MEL-28 melanoma, with MDA-N, with LOX IMVI melanoma and with HL-60(TB) leukemia was greater than 100 µM throughout.

Take `CN(O)C(=O)Cc1ccc(OCc2cccc(Cl)c2)cc1`: the TGI in the assay on OVCAR-4 ovarian, with BT-549 breast, with OVCAR-3 ovarian, in the assay with UACC-257 melanoma, in the assay with NCI-H226 lung and in the assay on HCC-2998 colon was greater than 100 µM throughout. The TGI in the assay with MDA-MB-231 breast, in the assay with UACC-62 melanoma, with SK-MEL-28 melanoma, with MDA-N, in the assay with LOX IMVI melanoma and in the assay with HL-60(TB) leukemia was greater than 100 µM each time.

In the case of `O=c1c2cc(I)ccc2[nH]c(=S)n1Cc1ccccc1`, the TGI in the assay with OVCAR-4 ovarian was greater than 100 µM; in the assay with BT-549 breast, 44.6 µM; in the assay with OVCAR-3 ovarian it was greater than 100 µM; in the assay with UACC-257 melanoma, greater than 100 µM; in the assay with NCI-H226 lung, greater than 100 µM; in the assay on HCC-2998 colon, greater than 100 µM. The TGI with MDA-MB-231 breast is 66.3 µM; in the assay on UACC-62 melanoma it was greater than 100 µM; in the assay with SK-MEL-28 melanoma, greater than 100 µM; in the assay on MDA-N, greater than 100 µM; in the assay with LOX IMVI melanoma it was greater than 100 µM; with HL-60(TB) leukemia, 28.5 µM.
